This note sets out measurements from publication PMC4941353, “Interaction of antihistaminic drugs with human translationally controlled tumor protein (TCTP) as novel approach for differentiation therapy” (Oncotarget, 2016).

Experiment [1] has as its target T1, translationally controlled tumor protein (TCTP) (Homo sapiens, UniProt P13693).
T1 construct: gene TPT1; recombinant human TCTP (172 amino acids), codon-optimized, expressed in E. coli, intein tag cleaved on column
T1 sequence (P13693 1-172): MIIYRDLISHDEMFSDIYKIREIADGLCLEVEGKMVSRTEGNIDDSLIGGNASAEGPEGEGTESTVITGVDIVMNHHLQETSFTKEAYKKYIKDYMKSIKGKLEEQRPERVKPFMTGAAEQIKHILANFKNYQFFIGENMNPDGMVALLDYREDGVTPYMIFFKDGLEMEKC
Nature of the experiment: microscale thermophoresis with amine-labeled (BLUE-NHS) purified TCTP, buffer with […] chloroform. In kind it is binding. In general terms: Microscale thermophoresis detects binding through changes in fluorescence in a small temperature gradient.

Experiment [2] concerns the target T1, translationally controlled tumor protein (TCTP). The experiment in a line: microscale thermophoresis with amine-labeled (BLUE-NHS) purified TCTP. The class given is binding.

The Kd is the equilibrium constant for the complex coming apart. A higher Kd goes with lower affinity. `CC(C)(C)c1ccc(CN2CCN(C(c3ccccc3)c3ccc(Cl)cc3)CC2)cc1` (centres unmarked) [buclizine] yielded a Kd in experiment [1] of 433 ± 47.1 µM.
`COc1ccc2c(c1)N(C[C@H](C)CN(C)C)c1ccccc1S2` [levomepromazine]: the affinity in experiment [2], expressed as Kd, was 57.2 ± 6.49 µM.
